Assay [1] concerns A375.S2 cell line. The experiment in a line: SRB cytotoxicity assay, A375.S2 melanoma cell line. The conditions noted are these: Homo sapiens, A375-S2, 72 h, read-out: Cytotoxicity IC50 value, A375.S2 cell line. On the procedure:
(§1) All reagents and chemicals of analytical grade were obtained from Sigma (Dorset, UK); unless stated otherwise. All chemicals, reagents and solvents (of analytical grade) were used directly without further purification. MCF7 cell line ATCC® HTB-22™, T47D cell line ATCC® HTB-133™, K562 cell line ATCC® CCL-243™, Panc1 cell line ATCC® CRL-1469™. A375.S2 cell line ATCC® CRL-1872™, A549 cell line ATCC® CCL-185™, HELA cell line ATCC® CCL-2™ were cultured in Dulbecco’s modified eagle’s medium (DMEM). (DMEM) containing foetal bovine serum (FBS) (Bio Whittaker, Verviers, Belgium), 4-(2-hydroxyethyl)-1-piperazine ethane sulfonic acid (HEPES) Buffer, L-glutamine, gentamicin, penicillin, and streptomycin sulphate (Sigma, St. Luis, MO, USA), trypsin, trypan blue, Ciprofloxacin HCl from Aarti drugs Ltd/India, was a kind gift from Pharma International Company- Amman; Fluconazole from Neopharma, United Arab Emirates, a kind gift from Pharmaceutical Research Unit, Amman; Trypon soya agar (TSA), trypon soya broth (TSB), sabouraud dextrose agar (SDA) were obtained from Liofilchem (Italy) or Oxoid LTD (Basingstoke, England), they were reconstituted and sterilized by autoclave at 121 °C for 15 min.
(§2) The cytotoxicity measurements were determined using Sulforhodamine B (SRB) colorimetric assay for cytotoxicity screening. The mechanism of reduction of cell viability was adopted as described previously (Arabiyat et al., 2016a,b; 2017; Alabsi et al., 2018; Jumah, 2018; AlShahrabi et al., 2020). Human periodontal ligament fibroblasts (PDL) are a primary normal cell culture for verification of selective cytotoxicity. […] Selectivity ratio as indicative factor of the safety of compounds was calculated by dividing IC50 of tested compound on normal fibroblasts by IC50 of the same compound on specific pathological cell line (Hoffman et al., 2011).
In general terms: The SRB assay estimates cell density from bound dye.

Assay [2] has as its system K562 cell line. The assay is described as follows: SRB cytotoxicity assay, K562 leukaemia cell line. The conditions noted are these: Homo sapiens, K562, 72 h. The procedure:
as §1, §2

The test system of assay [3] is A549 cell line. The assay is described as follows: SRB cytotoxicity assay, A549 lung cancer cell line. The conditions noted are these: Homo sapiens, A549, 72 h, read-out: Cytotoxicity IC50 value, A549 cell line. On the procedure:
as §1, §2

The test system of assay [4] is MCF7 cell line. The assay is described as follows: SRB cytotoxicity assay, MCF7 breast cancer cell line. The conditions noted are these: Homo sapiens, MCF7, 72 h, read-out: Cytotoxicity IC50 value, MCF7 cell line. On the procedure: as §1, §2
Assay [5] concerns PANC 1 cell line. The experiment in a line: SRB cytotoxicity assay, PANC 1 pancreatic cancer cell line. The conditions noted are these: Homo sapiens, PANC-1, 72 h, read-out: Cytotoxicity IC50 value, PANC 1 cell line. The procedure:
as §1, §2

The test system of assay [6] is HELA cell line. The assay is described as follows: SRB cytotoxicity assay, HELA cervical cancer cell line. The conditions noted are these: Homo sapiens, HeLa, 72 h. On the procedure:
as §1, §2

In assay [7] the test system is PDL Fibroblasts. The experiment in a line: SRB cytotoxicity on normal periodontal ligament fibroblasts, selective cytotoxicity. It counts as cell-based, Human. The settings on record: for IC50: Homo sapiens, Fibroblast, normal fibroblasts, SRB, 72 h, mean ± SD; for Selectivity index SI (K562): IC50 on PDL fibroblasts divided by IC50 on K562; for Selectivity index SI (HELA): IC50 on PDL fibroblasts divided by IC50 on HELA. The procedure:
as §2

Assay [8] deals with T47D cell line. The assay is described as follows: cells. The settings on record: Homo sapiens, T47D, 72 h, read-out: Cytotoxicity IC50 value, T47D cell line. On the procedure:
as §1, §2

Setting [9] is: read-out: Cytotoxicity IC50 value, K562 cell line, SRB, 72 h, 0.1-200 μg/mL range, mean ± SD, value in brackets.
Where [10] appears, read: read-out: Cytotoxicity IC50 value, K562 cell line, SRB, 72 h, 0.1-200 μg/mL range, mean ± SD, NI = lack of cytotoxicity in range.
The mark [11] stands for this setting: read-out: Cytotoxicity IC50 value, HELA cell line, SRB, 72 h, 0.1-200 μg/mL range, mean ± SD, value in brackets.
Setting [12] is: read-out: Cytotoxicity IC50 value, HELA cell line, SRB, 72 h, 0.1-200 μg/mL range, mean ± SD, NI = lack of cytotoxicity in range.
[13] abbreviates: 0.1-200 μg/mL range, NI = lack of cytotoxicity in range.

Where “and” joins values, the source holds several entries; their conditions need not be identical. Equal values may be shown once. Read-outs that look alike come from different tables or passages of the source.

Consider `CCCCCCc1ccc(Nc2c(F)cc3c(=O)c(C(=O)O)cn(C4CC4)c3c2N)cc1` [4f, 8-Amino-1-cyclopropyl-6-fluoro-7-(4-hexyl-phenylamino)-4-oxo-1,4-dihydro-quinoline-3-carboxylic acid], for which the IC50 in assay [1] was 244 µM and 107 µg/mL; in assay [2] (setting [9]), 30.4 µg/mL; in assay [2] (setting [10]), 69.4 ± 6.64 µM; in assay [3], 204 µM and 89.5 µg/mL; in assay [4], 300 nM and 0.13 µg/mL; in assay [5], 110 nM and 0.05 µg/mL. Further, the IC50 in assay [6] (setting [11]) was 13.4 µg/mL; in assay [6] (setting [12]), 30.7 ± 3.79 µM; in assay [7] (setting [13]) it was 352 ± 7.36 µM; in assay [7] (value in brackets), 154 µg/mL; in assay [8] it was 308 µM and 135 µg/mL. In addition, the “Selectivity index SI (PANC 1)” value in assay [7] (IC50 on PDL fibroblasts divided by IC50 on PANC 1) is 3199.45.
Take `COc1ccc(-n2nnc3c4c(cc(F)c32)c(=O)c(C(=O)O)cn4C2CC2)c(OC)c1` [5g, 9-cyclopropyl-3-(2,4-dimethoxy-phenyl)-4-fluoro-6-oxo-6,9-dihydro-3H-[1,2,3] triazolo[4,5-h]quinoline-7-carboxylic acid]: the IC50 in assay [1] was 272 µM and 118 µg/mL; in assay [2] (setting [9]), 24.2 µg/mL; in assay [2] (setting [10]), 56 ± 8.04 µM; in assay [3] it was 474 µM and 205 µg/mL; in assay [4], 143 µM and 61.9 µg/mL; in assay [5] it was greater than 200 µg/mL. Moreover, the IC50 is 71.8 µg/mL in assay [6] (setting [11]); 166 ± 26 µM in assay [6] (setting [12]); 237 ± 13.5 µM in assay [7] (setting [13]); 102 µg/mL in assay [7] (value in brackets); 237 µM and 102 µg/mL in assay [8]. The “Selectivity index SI (K562)” value in assay [7] came out at 4.23.
Take `CCn1cc(C(=O)O)c(=O)c2cc(F)c(Nc3cccc(OC)c3)c(N)c21` [12b, 8-amino-1-ethyl-6-fluoro-7-(3-methoxy-phenylamino)-4-oxo-1,4-dihydro-quinoline-3-carboxylic acid]: the IC50 is 112 µM and 41.7 µg/mL in assay [1]; 13.2 µg/mL in assay [2] (setting [9]); 35.4 ± 3.8 µM in assay [2] (setting [10]); 163 µM and 60.4 µg/mL in assay [3]; 492 µM and 183 µg/mL in assay [4]; 35.4 µM and 13.2 µg/mL in assay [5]. Further, the IC50 in assay [6] (setting [11]) is 83.6 µg/mL; in assay [6] (setting [12]) it was 225 ± 34 µM; in assay [7] (setting [13]), 150 ± 6.73 µM; in assay [7] (value in brackets), 55.5 µg/mL; in assay [8], 169 µM and 62.7 µg/mL. For the same molecule, in assay [7], the “Selectivity index SI (K562)” value is recorded as 4.22.
On to `CCn1cc(C(=O)O)c(=O)c2cc(F)c(Nc3ccccc3OC)c([N+](=O)[O-])c21` [11a, 1-ethyl-6-fluoro-7-(2-methoxy-phenylamino)-8-nitro-4-oxo-1,4-dihydro-quinoline-3 carboxylic acid], for which the IC50 in assay [1] is 1.02 mM and 411 µg/mL; in assay [2] (setting [9]), 6.38 µg/mL; in assay [2] (setting [10]), 15.9 ± 1.75 µM; in assay [3], 96.8 µM and 8.84 µg/mL; in assay [4], 67.8 µM and 27.2 µg/mL; in assay [5] it was 187 µM and 75.2 µg/mL. Further, the IC50 in assay [6] (setting [11]) was 41.4 µg/mL; in assay [6] (setting [12]), 103 ± 7.66 µM; in assay [7] (setting [13]) it was 156 ± 11.7 µM; in assay [7] (value in brackets), 62.7 µg/mL; in assay [8], 22.8 µM and 9.16 µg/mL. Also, the “Selectivity index SI (K562)” value in assay [7] was 9.83.
With `COc1cccc(Nc2c(F)cc3c(=O)c(C(=O)O)cn(C4CC4)c3c2[N+](=O)[O-])c1` [3b, 1-cyclopropyl-6-fluoro-7-(3-methoxy-phenylamino)-8-nitro-4-oxo-1,4-dihydro-quinoline-3-carboxylic acid], the IC50 in assay [1], in assay [2] (setting [10]), in assay [3], in assay [4], in assay [5] and in assay [6] (setting [12]) was greater than 200 µg/mL in each case. In addition, the IC50 in assay [7] (setting [13]) and in assay [8] was greater than 200 µg/mL in each case.
Consider `CCCCCCc1ccc(-n2nnc3c4c(cc(F)c32)c(=O)c(C(=O)O)cn4C2CC2)cc1` [5f, 9-cyclopropyl-4-fluoro-3-(4-hexyl-phenyl)-6-oxo-6,9-dihydro-3H-[1,2,3] triazolo[4,5-h]quinoline-7-carboxylic acid], for which the IC50 in assay [1] is 508 µM and 227 µg/mL; in assay [2] (setting [9]), 14.1 µg/mL; in assay [2] (setting [10]), 31.5 ± 2.92 µM; in assay [3] it was 362 µM and 162 µg/mL; in assay [4] it was 181 µM and 81.1 µg/mL; in assay [5] it was 119 µM and 53.4 µg/mL. Also, the IC50 in assay [6] (setting [11]) was 1.61 µg/mL; in assay [6] (setting [12]), 3.59 ± 0.05 µM; in assay [7] (setting [13]) it was 474 ± 33.5 µM; in assay [7] (value in brackets), 212 µg/mL; in assay [8] it was 232 µM and 104 µg/mL. Also, the “Selectivity index SI (HELA)” value in assay [7] turned out to be 132.15.
Regarding `O=C(O)c1cn(C2CC2)c2c(cc(F)c3c2nnn3C2CCCCC2)c1=O` [9a, 3-cyclohexyl-9-cyclopropyl-4-fluoro-6-oxo-6,9-dihydro-3H-[1,2, and 3] triazolo [4,5-h] quinoline-7-carboxylic acid], the IC50 in assay [1] is 215 µM and 79.6 µg/mL; in assay [2] (setting [10]), greater than 200 µg/mL; in assay [3], 223 µM and 82.3 µg/mL; in assay [4] it was 133 µM and 49.2 µg/mL; in assay [5], 162 µM and 60 µg/mL; in assay [6] (setting [11]), 27.6 µg/mL. Further, the IC50 in assay [6] (setting [12]) was 74.8 ± 1.67 µM; in assay [7] (setting [13]) it was 252 ± 11.6 µM; in assay [7] (value in brackets) it was 93.1 µg/mL; in assay [8], 299 µM and 110 µg/mL. In addition, the “Selectivity index SI (HELA)” value in assay [7] is 3.36.
For the molecule `CCCCc1ccc(Nc2c(F)cc3c(=O)c(C(=O)O)cn(C4CC4)c3c2[N+](=O)[O-])cc1` [3e, 1-cyclopropyl-6-fluoro-7-(4-butyl-phenylamino)-8-nitro-4-oxo-1,4-dihydro-quinoline-3-carboxylic acid], the IC50 was 144 µM and 63.5 µg/mL in assay [1]; 0.71 µg/mL in assay [2] (setting [9]); 1.62 ± 0.16 µM in assay [2] (setting [10]); 64.2 µM and 28.2 µg/mL in assay [3]; 428 µM and 188 µg/mL in assay [4]; 12.2 µM and 5.38 µg/mL in assay [5]. Moreover, the IC50 in assay [6] (setting [11]) is 498 µg/mL; in assay [6] (setting [12]) it was 1130 ± 65.6 µM; in assay [7] (setting [13]), 711 ± 44.9 µM; in assay [7] (value in brackets) it was 313 µg/mL; in assay [8], 406 µM and 178 µg/mL. For the same molecule, in assay [7], the “Selectivity index SI (K562)” value stood at 439.01.
For `COc1ccc(Nc2c(F)cc3c(=O)c(C(=O)O)cn(C4CC4)c3c2N)cc1` [4c, 8-amino-1-cyclopropyl-6-fluoro-7-(4-methoxy-phenylamino)-4-oxo-1,4-dihydro-quinoline-3-carboxylic acid], the IC50 in assay [1] is 248 µM and 95 µg/mL; in assay [2] (setting [9]), 20 µg/mL; in assay [2] (setting [10]), 52.1 ± 6.9 µM; in assay [3] it was 5.11 µM and 1.96 µg/mL; in assay [4], 57.4 µM and 22 µg/mL; in assay [5], 72.1 µM and 27.6 µg/mL. Further, the IC50 in assay [6] (setting [11]) was 97.8 µg/mL; in assay [6] (setting [12]) it was 255 ± 2.15 µM; in assay [7] (setting [13]), 138 ± 8.26 µM; in assay [7] (value in brackets), 53 µg/mL; in assay [8], 77.2 µM and 29.6 µg/mL. Besides, the “Selectivity index SI (A562)” value in assay [7] (IC50 on PDL fibroblasts divided by IC50 on the cell line printed as A562) turned out to be 27.07.

The values are drawn from paper PMC8325119, “A Novel Class of Functionalized Synthetic Fluoroquinolones with Dual Antiproliferative - Antimicrobial Capacities” (Asian Pacific Journal of Cancer Prevention : APJCP, 2021).
